Reference: PubChem BioAssay AID2060493 (Molecular Pharmacology Branch, DTP, NCI, 2025)
pIC50: −log10 of the molar value.

Tested on: 616215-338-R-J1-PDC tumor spheroids, viability
Test: Anticancer human tumor 616215-338-R-J1-PDC patient-derived colon adenocarcinoma cell line growth inhibition [GQUAD]
Settings: spheroids with HUVEC and MSC; for pIC50: curve of first compound; for viability, T/C: stronger effect = lower value
Outline: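 Tumor cells were grown as complex spheroids with HUVEC endothelial cells and mesenchymal stem cells as stroma. G-quadruplex stabilizers were combined with targeted agents over half-log dilutions from near the clinical Cmax, or from 10 microM.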

[1] = second compound 0.0316 µM, first compound 0.000999 µM
[2] = second compound 0.0316 µM, first compound 0.00316 µM
[3] = second compound 0.0316 µM, first compound 0.00999 µM
[4] = second compound 0.0316 µM, first compound 0.0316 µM
[5] = second compound 0.0316 µM, first compound 0.0999 µM
[6] = second compound 0.0316 µM, first compound 0.316 µM
[7] = second compound 0.1 µM, first compound 0.000999 µM
[8] = second compound 0.1 µM, first compound 0.00316 µM
[9] = second compound 0.1 µM, first compound 0.00999 µM
[10] = second compound 0.1 µM, first compound 0.0316 µM
[11] = second compound 0.1 µM, first compound 0.0999 µM
[12] = second compound 0.1 µM, first compound 0.316 µM
[13] = second compound 0.316 µM, first compound 0.000999 µM
[14] = second compound 0.316 µM, first compound 0.00316 µM
[15] = second compound 0.316 µM, first compound 0.00999 µM
[16] = second compound 0.316 µM, first compound 0.0316 µM
[17] = second compound 0.316 µM, first compound 0.0999 µM
[18] = second compound 0.316 µM, first compound 0.316 µM
[19] = second compound 1 µM, first compound 0.000999 µM
[20] = second compound 1 µM, first compound 0.00316 µM
[21] = second compound 1 µM, first compound 0.00999 µM
[22] = second compound 1 µM, first compound 0.0316 µM
[23] = second compound 1 µM, first compound 0.0999 µM
[24] = second compound 1 µM, first compound 0.316 µM
[25] = second compound 3.16 µM, first compound 0.000999 µM
[26] = second compound 3.16 µM, first compound 0.00316 µM
[27] = second compound 3.16 µM, first compound 0.00999 µM
[28] = second compound 3.16 µM, first compound 0.0316 µM
[29] = second compound 3.16 µM, first compound 0.0999 µM
[30] = second compound 3.16 µM, first compound 0.316 µM
[31] = second compound 10 µM, first compound 0.000999 µM
[32] = second compound 10 µM, first compound 0.00316 µM
[33] = second compound 10 µM, first compound 0.00999 µM
[34] = second compound 10 µM, first compound 0.0316 µM
[35] = second compound 10 µM, first compound 0.0999 µM
[36] = second compound 10 µM, first compound 0.316 µM
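Note: spheroids exposed to agents for 7 days before readout.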
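Throughout, for viability, T/C: percent viability relative to DMSO vehicle control wells taken as 100%.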

CCc1c2c(nc3ccc(O)cc13)-c1cc3c(c(=O)n1C2)COC(=O)[C@]3(O)CC + CN(C)c1ccc(Nc2c3ccc(NC(=O)CCN4CCCC4)cc3nc3cc(NC(=O)CCN4CCCC4)ccc23)cc1
pIC50 (second compound 0.0316 µM): 7.84 | pIC50 (second compound 0.1 µM): 7.76 | pIC50 (second compound 0.316 µM): 7.84 | pIC50 (second compound 1 µM): 7.91 | pIC50 (second compound 3.16 µM): 7.95 | pIC50 (second compound 10 µM): 8.06 | viability, T/C [1]: 93.8% | viability, T/C [2]: 92.4% | viability, T/C [3]: 53.7% | viability, T/C [4]: 32.6% | viability, T/C [5]: 18.1% | viability, T/C [6]: 8.35% | viability, T/C [7]: 112% | viability, T/C [8]: 99.8% | viability, T/C [9]: 70.3% | viability, T/C [10]: 28.9% | viability, T/C [11]: 13.8% | viability, T/C [12]: 12.4% | viability, T/C [13]: 101% | viability, T/C [14]: 96.7% | viability, T/C [15]: 59.9% | viability, T/C [16]: 27% | viability, T/C [17]: 18% | viability, T/C [18]: 8.81% | viability, T/C [19]: 97.3% | viability, T/C [20]: 94.3% | viability, T/C [21]: 46.9% | viability, T/C [22]: 35% | viability, T/C [23]: 20.5% | viability, T/C [24]: 10.3% | viability, T/C [25]: 98.3% | viability, T/C [26]: 86.8% | viability, T/C [27]: 49.3% | viability, T/C [28]: 30.2% | viability, T/C [29]: 19.3% | viability, T/C [30]: 12.6% | viability, T/C [31]: 95.7% | viability, T/C [32]: 73.9% | viability, T/C [33]: 46% | viability, T/C [34]: 25.9% | viability, T/C [35]: 13.2% | viability, T/C [36]: 8.62%

Cc1cccc(N(C)C(=O)C2C(O)CCN2c2nc(C)cc(C(F)(F)F)c2C#N)c1 (stereo unspecified) + CN(C)c1ccc(Nc2c3ccc(NC(=O)CCN4CCCC4)cc3nc3cc(NC(=O)CCN4CCCC4)ccc23)cc1
pIC50 (second compound 0.0316 µM): < 5.00 | pIC50 (second compound 0.1 µM): < 5.00 | pIC50 (second compound 0.316 µM): < 5.00 | pIC50 (second compound 1 µM): < 5.00 | pIC50 (second compound 3.16 µM): < 5.00 | pIC50 (second compound 10 µM): 5.51 | viability, T/C [4]: 111% | viability, T/C (second compound 0.0316 µM, first compound 0.1 µM): 97.9% | viability, T/C [6]: 103% | viability, T/C (second compound 0.0316 µM, first compound 1 µM): 103% | viability, T/C (second compound 0.0316 µM, first compound 3.16 µM): 105% | viability, T/C (second compound 0.0316 µM, first compound 10 µM): 109% | viability, T/C [10]: 102% | viability, T/C (second compound 0.1 µM, first compound 0.1 µM): 101% | viability, T/C [12]: 108% | viability, T/C (second compound 0.1 µM, first compound 1 µM): 101% | viability, T/C (second compound 0.1 µM, first compound 3.16 µM): 104% | viability, T/C (second compound 0.1 µM, first compound 10 µM): 96.2% | viability, T/C [16]: 104% | viability, T/C (second compound 0.316 µM, first compound 0.1 µM): 99.5% | viability, T/C [18]: 104% | viability, T/C (second compound 0.316 µM, first compound 1 µM): 107% | viability, T/C (second compound 0.316 µM, first compound 3.16 µM): 114% | viability, T/C (second compound 0.316 µM, first compound 10 µM): 110% | viability, T/C [22]: 100% | viability, T/C (second compound 1 µM, first compound 0.1 µM): 99.1% | viability, T/C [24]: 106% | viability, T/C (second compound 1 µM, first compound 1 µM): 97.8% | viability, T/C (second compound 1 µM, first compound 3.16 µM): 102% | viability, T/C (second compound 1 µM, first compound 10 µM): 98.7% | viability, T/C [28]: 98.6% | viability, T/C (second compound 3.16 µM, first compound 0.1 µM): 93.1% | viability, T/C [30]: 103% | viability, T/C (second compound 3.16 µM, first compound 1 µM): 102% | viability, T/C (second compound 3.16 µM, first compound 3.16 µM): 88.2% | viability, T/C (second compound 3.16 µM, first compound 10 µM): 88.9% | viability, T/C [34]: 102% | viability, T/C (second compound 10 µM, first compound 0.1 µM): 78.2% | viability, T/C [36]: 80.2% | viability, T/C (second compound 10 µM, first compound 1 µM): 63.5% | viability, T/C (second compound 10 µM, first compound 3.16 µM): 49% | viability, T/C (second compound 10 µM, first compound 10 µM): 36.6%

Cn1ncnc1[C@H]1c2n[nH]c(=O)c3cc(F)cc(c23)N[C@@H]1c1ccc(F)cc1 + CN(C)c1ccc(Nc2c3ccc(NC(=O)CCN4CCCC4)cc3nc3cc(NC(=O)CCN4CCCC4)ccc23)cc1
pIC50 (second compound 0.0316 µM): < 6.50 | pIC50 (second compound 0.1 µM): < 6.50 | pIC50 (second compound 0.316 µM): < 6.50 | pIC50 (second compound 1 µM): < 6.50 | pIC50 (second compound 3.16 µM): < 6.50 | pIC50 (second compound 10 µM): < 6.50 | viability, T/C [1]: 103% | viability, T/C [2]: 101% | viability, T/C [3]: 99.7% | viability, T/C [4]: 104% | viability, T/C [5]: 112% | viability, T/C [6]: 97% | viability, T/C [7]: 99.5% | viability, T/C [8]: 113% | viability, T/C [9]: 104% | viability, T/C [10]: 99.8% | viability, T/C [11]: 95% | viability, T/C [12]: 96.6% | viability, T/C [13]: 98.2% | viability, T/C [14]: 92.2% | viability, T/C [15]: 108% | viability, T/C [16]: 111% | viability, T/C [17]: 102% | viability, T/C [18]: 106% | viability, T/C [19]: 100% | viability, T/C [20]: 91.9% | viability, T/C [21]: 104% | viability, T/C [22]: 103% | viability, T/C [23]: 98.1% | viability, T/C [24]: 87.7% | viability, T/C [25]: 103% | viability, T/C [26]: 92.2% | viability, T/C [27]: 94.2% | viability, T/C [28]: 101% | viability, T/C [29]: 90.5% | viability, T/C [30]: 95.4% | viability, T/C [31]: 94.4% | viability, T/C [32]: 77.8% | viability, T/C [33]: 91.9% | viability, T/C [34]: 89% | viability, T/C [35]: 90.9% | viability, T/C [36]: 86.7%
